Laboratory results from ChEMBL document CHEMBL3714741, “Compounds and compositions as ITPKB inhibitors” (2011).
Activity calls are given as the source filed them. How the calls were made is not given here.

molecular target: T1, Inositol-trisphosphate 3-kinase B (Homo sapiens) (UniProt P27987); assay: Inhibition of ITPKb in human Jurkat cells assessed as reduction in conversion of IP3 to IP4 using [3H]-myo-inositol incubated for 5 mins by beta-RAM radio-HPLC method; assay type: cell-based
T1 sequence (whole entry): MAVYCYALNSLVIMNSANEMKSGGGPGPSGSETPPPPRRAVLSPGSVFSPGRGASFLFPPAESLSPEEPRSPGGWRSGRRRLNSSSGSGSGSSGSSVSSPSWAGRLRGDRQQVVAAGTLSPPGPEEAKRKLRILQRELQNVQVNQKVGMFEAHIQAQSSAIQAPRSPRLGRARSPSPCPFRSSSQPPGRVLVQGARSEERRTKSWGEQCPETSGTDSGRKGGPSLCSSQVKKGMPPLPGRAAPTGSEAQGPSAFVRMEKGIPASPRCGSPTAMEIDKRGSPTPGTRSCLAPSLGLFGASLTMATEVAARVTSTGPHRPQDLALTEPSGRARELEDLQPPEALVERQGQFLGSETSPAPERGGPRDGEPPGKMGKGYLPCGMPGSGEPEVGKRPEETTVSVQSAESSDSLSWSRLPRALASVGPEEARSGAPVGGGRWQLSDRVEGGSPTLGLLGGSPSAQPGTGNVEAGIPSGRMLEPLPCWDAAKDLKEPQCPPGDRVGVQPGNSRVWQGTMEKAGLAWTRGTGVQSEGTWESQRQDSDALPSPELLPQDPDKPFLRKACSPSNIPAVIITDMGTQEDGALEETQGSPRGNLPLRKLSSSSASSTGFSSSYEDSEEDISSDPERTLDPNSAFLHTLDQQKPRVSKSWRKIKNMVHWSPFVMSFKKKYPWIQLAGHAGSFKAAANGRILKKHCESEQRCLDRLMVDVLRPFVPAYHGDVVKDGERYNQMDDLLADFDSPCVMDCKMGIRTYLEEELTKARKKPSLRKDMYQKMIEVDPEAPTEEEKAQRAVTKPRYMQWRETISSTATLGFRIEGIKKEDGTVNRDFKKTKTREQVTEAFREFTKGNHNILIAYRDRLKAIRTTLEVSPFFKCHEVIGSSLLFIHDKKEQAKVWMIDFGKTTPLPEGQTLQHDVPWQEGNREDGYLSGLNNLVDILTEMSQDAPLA

SMILES | inhibition
C[C@@H]1CN(Cc2c[nH]nc2-c2c[nH]c3ncccc23)CCN1c1ccc(C(F)(F)F)cn1 | Active
C[C@@H]1CN(Cc2c[nH]nc2C(=O)Nc2cc(-c3ccco3)n[nH]2)CCN1c1ccc(C(F)(F)F)cn1 | Active
C[C@@H]1CN(Cc2c[nH]nc2/C=C2\NC(=S)NC2=O)CCN1c1ccc(C(F)(F)F)cn1 | Active
C[C@@H]1CN(Cc2c[nH]nc2-c2cc(C(=O)NCCO)c[nH]2)CCN1c1ccc(C(F)(F)F)cn1 | Active
CNC(=O)c1c[nH]c(-c2n[nH]cc2CN2CCN(c3ccc(C(F)(F)F)cn3)[C@H](C)C2)c1 | Active
CC(=O)N1CC=C(c2n[nH]cc2CN2CCN(c3ccc(C(F)(F)F)cn3)[C@H](C)C2)CC1 | Active
C[C@@H]1CN(Cc2c[nH]nc2-c2nc(C(F)(F)F)c[nH]2)CCN1c1ccc(C(F)(F)F)cn1 | Active
C[C@@H]1CN(Cc2c[nH]nc2C(=O)Nc2n[nH]cc2C#N)CCN1c1ccc(C(F)(F)F)cn1 | Active
N#Cc1c[nH]c(-c2n[nH]cc2CN2CCN(c3ccc(C(F)(F)F)cn3)[C@H](C(F)(F)F)C2)c1 | Active
C[C@@H]1CN(Cc2c[nH]nc2-c2c[nH]c(C#N)c2)CCN1c1ccc(C(F)(F)F)cn1 | Active
C[C@@H]1CN(Cc2c[nH]nc2C(=O)N2CCC(O)CC2)CCN1c1ccc(C(F)(F)F)cn1 | Active
C[C@@H]1CN(Cc2c[nH]nc2/C=C2\NC(=O)NC2=O)CCN1c1ccc(C(F)(F)F)cn1 | Active
C[C@@H]1CN(Cc2c[nH]nc2-c2ccc(C(N)=O)[nH]2)CCN1c1ccc(C(F)(F)F)cn1 | Active
C[C@@H]1CN(Cc2c[nH]nc2-c2ccnc3[nH]ccc23)CCN1c1ccc(C(F)(F)F)cn1 | Active
C[C@@H]1CN(Cc2c[nH]nc2C2=CCNCC2)CCN1c1ccc(C(F)(F)F)cn1 | Active
C[C@@H]1CN(Cc2c[nH]nc2-c2ccc3cnccc3c2)CCN1c1ccc(C(F)(F)F)cn1 | Active
C[C@@H]1CN(Cc2c[nH]nc2-c2nc3c([nH]2)CCCC3)CCN1c1ccc(C(F)(F)F)cn1 | Active
C[C@@H]1CN(Cc2c[nH]nc2-c2ccc(C#N)[nH]2)CCN1c1ccc(C(F)(F)F)cn1 | Active
C[C@@H]1CN(Cc2c[nH]nc2-c2nc3cnccc3[nH]2)CCN1c1ccc(C(F)(F)F)cn1 | Active
C[C@@H]1CN(Cc2c[nH]nc2-c2cc(C#N)c[nH]2)CCN1c1ccc(C(F)(F)F)cn1 | Active
C[C@@H]1CN(Cc2c[nH]nc2-c2cc(C(N)=O)c[nH]2)CCN1c1ccc(C(F)(F)F)cn1 | Active
C[C@@H]1CN(Cc2c[nH]nc2-c2nc3ccccc3[nH]2)CCN1c1ccc(C(F)(F)F)cn1 | Active
C[C@@H]1CN(Cc2c[nH]nc2C2CCNCC2)CCN1c1ccc(C(F)(F)F)cn1 | Active
Cc1cc(NC(=O)c2n[nH]cc2CN2CCN(c3ccc(C(F)(F)F)cn3)[C@H](C)C2)n(CCN(C)C)n1 | Active
FC(F)(F)c1ccc(N2CCN(Cc3c[nH]nc3-c3cccs3)CC2)nc1 | Active
C[C@@H]1CN(Cc2c[nH]nc2-c2cc3ccccc3[nH]2)CCN1c1ccc(C(F)(F)F)cn1 | Active
C[C@@H]1CN(Cc2c[nH]nc2-c2ccc(C(=O)O)o2)CCN1c1ccc(C(F)(F)F)cn1 | Active

SMILES | inhibition
C[C@@H]1CN(Cc2c[nH]nc2-c2cc(C(N)=O)co2)CCN1c1ccc(C(F)(F)F)cn1 | Active
C[C@@H]1CN(Cc2c[nH]nc2-c2nc(-c3ccccc3)c[nH]2)CCN1c1ccc(C(F)(F)F)cn1 | Active
Cc1cnc(-c2n[nH]cc2CN2CCN(c3ccc(C(F)(F)F)cn3)[C@H](C)C2)[nH]1 | Active
C[C@@H]1CN(Cc2c[nH]nc2-c2nc3cc(F)ccc3[nH]2)CCN1c1ccc(C(F)(F)F)cn1 | Active
C[C@@H]1CN(Cc2c[nH]nc2C2CCN(C=O)CC2)CCN1c1ccc(C(F)(F)F)cn1 | Active
C[C@@H]1CN(Cc2c[nH]nc2C2=CCN(C=O)CC2)CCN1c1ccc(C(F)(F)F)cn1 | Active
C[C@@H]1CN(Cc2c[nH]nc2-c2ccc(C(N)=O)o2)CCN1c1ccc(C(F)(F)F)cn1 | Active
C[C@@H]1CN(Cc2c[nH]nc2-c2cc(C(=O)N[C@@H](C)CO)c[nH]2)CCN1c1ccc(C(F)(F)F)cn1 | Active
C[C@@H]1CN(Cc2c[nH]nc2-c2nc(C(N)=O)c[nH]2)CCN1c1ccc(C(F)(F)F)cn1 | Active
C[C@@H]1CN(Cc2c[nH]nc2C(=O)Nc2ccncc2)CCN1c1ccc(C(F)(F)F)cn1 | Active
C[C@@H]1CN(Cc2c[nH]nc2-c2cc(C(=O)O)co2)CCN1c1ccc(C(F)(F)F)cn1 | Active
C[C@@H]1CN(Cc2c[nH]nc2-c2c[nH]c(C(N)=O)c2)CCN1c1ccc(C(F)(F)F)cn1 | Active
C[C@@H]1CN(Cc2c[nH]nc2/C=C2\NC(=N)NC2=O)CCN1c1ccc(C(F)(F)F)cn1 | Active
C[C@@H]1CN(Cc2c[nH]nc2-c2nc3cc(C#N)ccc3[nH]2)CCN1c1ccc(C(F)(F)F)cn1 | Active
C[C@@H]1CN(Cc2c[nH]nc2C2=CCN(C(=O)CCO)CC2)CCN1c1ccc(C(F)(F)F)cn1 | Active
C[C@@H]1CN(Cc2c[nH]nc2C(=O)Nc2nc[nH]c2C#N)CCN1c1ccc(C(F)(F)F)cn1 | Active
C[C@@H]1CN(Cc2c[nH]nc2-c2nc(C#N)c[nH]2)CCN1c1ccc(C(F)(F)F)cn1 | Active
C[C@@H]1CN(Cc2c[nH]nc2C(=O)N2CC(O)C2)CCN1c1ccc(C(F)(F)F)cn1 | Active
COC(=O)c1ccc(-c2n[nH]cc2CN2CCN(c3ccc(C(F)(F)F)cn3)[C@H](C)C2)o1 | Active
C[C@@H]1CN(Cc2c[nH]nc2-c2ccc(C#N)c(=O)[nH]2)CCN1c1ccc(C(F)(F)F)cn1 | Active
CC(O)CNC(=O)c1c[nH]c(-c2n[nH]cc2CN2CCN(c3ccc(C(F)(F)F)cn3)[C@H](C)C2)c1 (some centres undefined) | Active
C[C@@H]1CN(Cc2c[nH]nc2-c2cc(C(=O)N(C)C)c[nH]2)CCN1c1ccc(C(F)(F)F)cn1 | Active
C[C@@H]1CN(Cc2c[nH]nc2-c2nc(C(=N)N)c[nH]2)CCN1c1ccc(C(F)(F)F)cn1 | Active
C[C@@H]1CN(Cc2c[nH]nc2C(=O)N2CCC(O)C2)CCN1c1ccc(C(F)(F)F)cn1 (some centres undefined) | Active
Cc1nc(-c2n[nH]cc2CN2CCN(c3ccc(C(F)(F)F)cn3)[C@H](C)C2)[nH]c1C | Active
NC(=O)c1c[nH]c(-c2n[nH]cc2CN2CCN(c3ccc(C(F)(F)F)cn3)[C@H](C(F)(F)F)C2)c1 | Active

molecular target: T2, Kinase (Mus musculus, UniProt B2RXC2); assay: Inhibition of mouse ITPKb (640 to 942 residues) expressed in Escherichia coli HK100 assessed as reduction in phosphorylation of IP3 to IP4 incubated for 60 mins by kinase-Glo ATP depletion assay
T2 sequence (B2RXC2 whole entry): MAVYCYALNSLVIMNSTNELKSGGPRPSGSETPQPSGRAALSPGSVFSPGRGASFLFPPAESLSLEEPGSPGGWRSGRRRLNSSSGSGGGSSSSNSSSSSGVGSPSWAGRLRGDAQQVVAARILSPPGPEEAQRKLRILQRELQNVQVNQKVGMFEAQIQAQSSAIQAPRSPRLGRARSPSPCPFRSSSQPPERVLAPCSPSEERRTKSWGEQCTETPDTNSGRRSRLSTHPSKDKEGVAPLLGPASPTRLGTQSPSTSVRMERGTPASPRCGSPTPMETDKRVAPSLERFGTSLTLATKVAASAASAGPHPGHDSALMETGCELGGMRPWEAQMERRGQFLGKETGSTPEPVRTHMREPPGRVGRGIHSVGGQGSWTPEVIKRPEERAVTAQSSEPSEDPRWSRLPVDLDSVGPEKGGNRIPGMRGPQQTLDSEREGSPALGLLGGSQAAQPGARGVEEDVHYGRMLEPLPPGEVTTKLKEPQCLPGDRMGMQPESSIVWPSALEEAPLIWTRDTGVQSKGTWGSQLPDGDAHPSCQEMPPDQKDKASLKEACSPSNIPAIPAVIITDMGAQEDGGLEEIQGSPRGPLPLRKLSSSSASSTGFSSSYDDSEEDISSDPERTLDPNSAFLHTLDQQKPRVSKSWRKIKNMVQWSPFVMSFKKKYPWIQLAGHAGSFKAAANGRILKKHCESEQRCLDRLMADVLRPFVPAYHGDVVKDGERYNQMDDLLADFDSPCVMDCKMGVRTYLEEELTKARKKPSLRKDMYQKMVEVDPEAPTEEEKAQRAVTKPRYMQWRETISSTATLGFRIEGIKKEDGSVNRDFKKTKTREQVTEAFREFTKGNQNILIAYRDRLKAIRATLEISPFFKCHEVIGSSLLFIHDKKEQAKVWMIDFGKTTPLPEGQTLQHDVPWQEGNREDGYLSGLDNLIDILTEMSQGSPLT

SMILES | IC50 [µM]
Cc1cnc(-c2n[nH]cc2CN2CCN(c3ccc(C(F)(F)F)cn3)[C@H](C)C2)[nH]1 | 10
